According to publication PMC9414972, “α-Glucosidase and α-Amylase Inhibitory Potentials of Quinoline–1,3,4-oxadiazole Conjugates Bearing 1,2,3-Triazole with Antioxidant Activity, Kinetic Studies, and Computational Validation” (Pharmaceuticals, 2022):
Like-named read-outs stand apart in the source and are kept apart here.

Assays:
[1] = target: T1, porcine pancreatic amylase (Sus scrofa, UniProt P00690); assay: α-Amylase inhibitory activity (starch/DNS); assay type: biochemical; details: porcine pancreatic amylase, starch, pH 6.9, 25 °C; read-out: IC50 α-Amylase
T1 construct: purchased Merck
T1 sequence (P00690 16-511): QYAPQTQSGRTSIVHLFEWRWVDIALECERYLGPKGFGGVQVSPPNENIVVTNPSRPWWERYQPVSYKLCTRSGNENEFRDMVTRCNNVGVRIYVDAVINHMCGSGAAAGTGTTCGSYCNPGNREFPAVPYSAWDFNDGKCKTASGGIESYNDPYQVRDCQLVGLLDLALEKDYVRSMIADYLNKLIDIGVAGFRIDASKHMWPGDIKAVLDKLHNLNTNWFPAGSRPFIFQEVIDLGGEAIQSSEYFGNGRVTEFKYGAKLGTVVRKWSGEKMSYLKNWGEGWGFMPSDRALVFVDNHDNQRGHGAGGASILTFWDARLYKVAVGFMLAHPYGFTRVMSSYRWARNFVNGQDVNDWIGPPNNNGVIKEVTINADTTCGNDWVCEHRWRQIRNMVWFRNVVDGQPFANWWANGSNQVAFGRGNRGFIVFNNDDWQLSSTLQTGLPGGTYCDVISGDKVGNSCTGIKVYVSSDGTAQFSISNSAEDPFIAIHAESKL
Method: α-Amylase inhibitory activity was determined according to Ibitoye et al. with slight modifications. […] The reaction in the mixture was terminated with a 1 mL dinitrosalicylate reagent before boiling for 10 min. The cooled mixture was diluted with 5 mL distilled water, and the absorbance was read at 540 nm. The inhibitory activity was calculated using the formula below: % Inhibition=1−Absorbance of compound/Absorbance of control×100

[2] = DPPH radical scavenging activity; details: DPPH radical scavenging, 30 min, 25 °C
Method: The DPPH assay is used conventionally to quantify a compound’s ability to trap free radicals.
The compounds were evaluated for their ability to scavenge stable DPPH radicals, using a modification of the method by Turkoglu et al..

[3] = Ferric reducing antioxidant power (FRAP); details: ferric reducing antioxidant power
Method: FRAP is a ferric (Fe^3+) to ferrous (Fe^2+) ions reduction assay that measures a compound’s electron-donating capacity, i.e., the antioxidant’s reducing power.
The mixture was incubated at 50 °C for 20 min, followed by acidification with 100 μL trichloroacetic acid (10%). After centrifugation at 3500 rpm for 10 min, 200 μL of the supernatant was transferred into another test tube containing 200 μL of distilled water and 0.8 mL of FeCl3 (0.1%). Finally, the absorbance was read at 700 nm, and the total reductive antioxidant power was calculated thus: Ferric reducing antioxidant power (%)=Absorbance of compound/Absorbance of 500µM gallic acid×100

[4] = target: T2, α-glucosidase (Saccharomyces cerevisiae, UniProt P38158); assay: Mode of α-glucosidase inhibition (enzyme kinetics, Lineweaver–Burk); assay type: biochemical; details: Lineweaver–Burk plots; inhibitor 0, 75, 150, 300 µM; pNPG
T2 construct: purchased Merck
Source text: Understanding a drug’s mode of inhibiting its target is crucial to improve the drug’s activity profile and target specificity. Although orthosteric inhibition, in which the ligand binds at the target’s active site, dominates among currently available drugs, allosteric inhibitors (i.e., drugs binding at regions […] the active site) are desirable due to their reduced vulnerability to active site mutation or to displacement through native substrate overload at the active site. Accordingly, the mode of α-glucosidase inhibition was investigated for promising compounds 4b, 4i, 4j, 4k, 4l, 12k, and 12m, using a time-dependent para-nitrophenyl-[…] (pNPG) assay; the results are presented as Lineweaver–Burk plots (Figure 4). […] Conceivably, this can result in decreased systemic glucose concentration thus alleviating postprandial hyperglycemia and its associated complications.
The mode of inhibition of α-glucosidase of the 4b, 4i, 4j, 4k, 4l, 12k, and 12m compounds was determined using the method described by Kazeem et al. 2013, with modifications. Briefly, 50 µL of the 4b, 4i, 4j, 4k, 4l, 12k, and 12m compounds at (0 µM, 75 µM, 150 µM and 300 µM) concentrations were preincubated with 100 µL of α-glucosidase solution for 10 min at 25 °C in one set of tubes. In another set of tubes, α-glucosidase was preincubated with 50 µL of phosphate buffer (pH 6.9). 25 µL of pNPG at increasing concentrations (0.125–4.0 mg/mL) was added to both sets of solution to start the reaction. Immediately, the absorbance of the resulting solution was monitored for 2 min in a spectrophotometer at 405 nm. The amount of 4-nitrophenol released was determined from a 4-nitrophenol standard curve and then converted to reaction velocities.

[5] = target: T2, α-glucosidase; assay: biochemical; details: pNPG substrate, pH 6.8, 37 °C; read-out: IC50 α-Glucosidase
Method: The α-glucosidase inhibitory activity was evaluated using a previous method with slight modifications.

[6] = Nitric oxide (NO) scavenging activity; details: nitric oxide radical scavenging, 37 °C, 2 h
Method: The screening of the present compound series for NO radical scavenging activity (Table 2) identified excellent NO scavengers.
The antioxidant capacity of the compounds to scavenge nitric oxide radicals was determined using a modified version of the protocol by Kurian et al.. Briefly, 250 μL of sodium nitroprusside (10 mM) prepared in sodium phosphate buffer (pH 7.4) was added to 500 μL of the compound solution (62.5–500 μM) or distilled water (control). The resulting solution was incubated at 37 °C for 2 h. Then, 250 μL of Griess reagent was added to the reaction mixture before the absorbance was measured at 546 nm. The nitric oxide scavenging activity of the compounds was calculated with the formula: Nitric oxide scavenging (%)=1−Absorbance of compound/Absorbance of control×100

[7] = target: T2, α-glucosidase; parameters: method as in ref 28 (Asemanipoor et al.); details: ref 28 (Asemanipoor et al.); read-out: α-glucosidase inhibition IC50; cited from earlier work
[8] = target: T2, α-glucosidase; parameters: method as in ref 22 (Taha et al.); details: ref 22 (Taha et al.), cited from earlier work
[9] = target: T2, α-glucosidase; parameters: method as in ref 23 (Izgi et al.); details: ref 23 (Izgi et al.); read-out: α-glucosidase inhibition IC50; cited from earlier work

T2 sequence (P38158 whole entry): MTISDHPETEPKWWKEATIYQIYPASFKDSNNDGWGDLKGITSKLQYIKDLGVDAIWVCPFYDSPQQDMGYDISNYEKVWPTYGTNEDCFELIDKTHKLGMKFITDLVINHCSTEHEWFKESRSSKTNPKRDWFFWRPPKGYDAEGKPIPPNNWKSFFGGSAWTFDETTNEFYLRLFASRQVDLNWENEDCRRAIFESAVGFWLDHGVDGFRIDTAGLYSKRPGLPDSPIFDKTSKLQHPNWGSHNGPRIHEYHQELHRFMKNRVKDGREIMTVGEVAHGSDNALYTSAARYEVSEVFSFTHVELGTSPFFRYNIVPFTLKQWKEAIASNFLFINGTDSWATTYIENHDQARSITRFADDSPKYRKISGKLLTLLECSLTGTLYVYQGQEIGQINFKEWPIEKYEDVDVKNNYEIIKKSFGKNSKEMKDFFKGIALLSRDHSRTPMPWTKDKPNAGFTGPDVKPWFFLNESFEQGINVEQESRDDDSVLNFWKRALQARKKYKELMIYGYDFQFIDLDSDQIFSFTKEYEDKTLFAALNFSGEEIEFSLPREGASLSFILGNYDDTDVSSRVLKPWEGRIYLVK

Clc1ccc(CSc2nnc(COc3cccc4cccnc34)o2)cc1 [4l, 2-[(4-Chlorobenzyl)thio]-5-[(quinolin-8-yloxy)methyl]-1,3,4-oxadiazole]
IC50 [1]: > 500 µM
melting point: 101.4 to 104.2 °C
IC50 [2]: 77.7 µM
IC50 [3]: > 500 µM
mode of α-glucosidase inhibition [4]: non-competitive
IC50 [5]: 25.2 µM
IC50 [6]: > 500 µM

c1ccc(CSc2nnc(COc3cccc4cccnc34)o2)cc1 [4j, 2-(Benzylthio)-5-[(quinolin-8-yloxy)methyl]-1,3,4-oxadiazole]
IC50 [1]: > 500 µM
melting point: 75.3 to 79.8 °C
IC50 [2]: 54.9 µM
IC50 [3]: > 500 µM
mode of α-glucosidase inhibition [4]: non-competitive
IC50 [5]: 26.7 µM
IC50 [6]: 399 µM

CCc1ccc(NC(=O)Cn2cc(COc3ccc(-c4nc5ccccc5[nH]4)cc3)nn2)cc1 [C]
IC50 [7]: 35 µM

O=C(N/N=C/c1ccc(O)c(O)c1)c1ccc(-c2nnc(-c3ccc4ncccc4c3)o2)cc1 [A]
fold superior α-glucosidase inhibition compared with acarbose [8]: 15 fold
IC50 ([8]; read-out: α-glucosidase inhibition IC50): 2600 nM

Fc1ccc(-n2cc(CSc3nnc(COc4cccc5cccnc45)o3)nn2)cc1 [12m, 2-{[(1-(4-Fluorophenyl)-1H-1,2,3-triazol-4-yl)methyl]thio}-5-[(quinolin-8-yloxy)methyl]-1,3,4-oxadiazole]
IC50 [1]: > 500 µM
melting point: 134 to 140 °C
IC50 [2]: 88.7 µM
IC50 [3]: > 500 µM
mode of α-glucosidase inhibition [4]: non-competitive
IC50 [5]: 26.8 µM
IC50 [6]: > 500 µM

c1ccc(-c2nnc(-c3c[nH]c4ncccc34)o2)cc1 [B]
IC50 [9]: 400 µM
